Experimental data: article PMC11672637, “7-O-Carboxylic Acid-Substituted 3-O-Alkyl Difluoroquercetin; An Aztreonam-Potentiating Agent Against Carbapenemase-Producing Pseudomonas aeruginosa Through Simultaneous Inhibition of Metallo-β-Lactamase and Efflux Pump” (Antibiotics, 2024)
Like-named read-outs stand apart in the source and are kept apart here.

Columns and labels:
Assay in all cases: MIC / checkerboard with ATM
Parameters in all cases: key to Susceptibility category: S: susceptible; I: intermediate; R: resistant
PA-033, blaNDM = type: cell-based, P. aeruginosa; conditions: for MIC: Pseudomonas aeruginosa
PA-036, blaNDM = type: cell-based, P. aeruginosa; conditions: PA-036
PA-003, blaVIM = type: cell-based, P. aeruginosa
PA-040, blaNDM = type: cell-based, P. aeruginosa; conditions: for MIC: Pseudomonas aeruginosa
PA-041, blaNDM = type: cell-based, P. aeruginosa; conditions: for MIC: Pseudomonas aeruginosa
PA-031, blaNDM = type: cell-based, P. aeruginosa; conditions: for MIC: Pseudomonas aeruginosa
[1] = test system: NDM-1-Producing P. aeruginosa (PA-017, blaNDM); type: cell-based; conditions: PA-017
PA-026, blaNDM = type: cell-based, P. aeruginosa
PA-032, blaIMP = type: cell-based, P. aeruginosa; conditions: for MIC: Pseudomonas aeruginosa
PA-029, blaIMP = type: cell-based, P. aeruginosa; conditions: for MIC: Pseudomonas aeruginosa
PA-021, blaIMP = type: cell-based, P. aeruginosa; conditions: for MIC: Pseudomonas aeruginosa

- MIC (PA-033, blaNDM; PA-033, Table S2, read-out: MIC value): 2 µg/mL
- MIC (PA-033, blaNDM; read-out: MIC of ATM, PA-033, ATM alone (5 at 0 mg/L)): 2 µg/mL
- MIC (PA-003, blaVIM; Pseudomonas aeruginosa, read-out: MIC of ATM): 32 µg/mL
- MIC (PA-040, blaNDM; PA-040, Table S2, read-out: MIC value): 4 µg/mL
- MIC (PA-040, blaNDM; read-out: MIC of ATM, PA-040, ATM alone (5 at 0 mg/L)): 4 µg/mL
- MIC (PA-041, blaNDM; PA-041, Table S2, read-out: MIC value): 4 µg/mL
- MIC (PA-041, blaNDM; read-out: MIC of ATM, PA-041, ATM alone (5 at 0 mg/L)): 4 µg/mL
- MIC (PA-031, blaNDM; PA-031, Table S2, read-out: MIC value): 8 µg/mL
- MIC (PA-031, blaNDM; read-out: MIC of ATM, PA-031, ATM alone (5 at 0 mg/L)): 4 µg/mL
- MIC (PA-026, blaNDM; Pseudomonas aeruginosa, read-out: MIC of ATM, PA-026, ATM alone (5 at 0 mg/L)): 8 µg/mL
- MIC (PA-032, blaIMP; PA-032, Table S2, read-out: MIC value): 4 µg/mL
- MIC (PA-032, blaIMP; read-out: MIC of ATM, PA-032, ATM alone (5 at 0 mg/L)): 4 µg/mL
- MIC (PA-029, blaIMP; PA-029, Table S2, read-out: MIC value): 32 µg/mL
- MIC (PA-029, blaIMP; read-out: MIC of ATM, PA-029, ATM alone (5 at 0 mg/L)): 32 µg/mL
- MIC (PA-021, blaIMP; PA-021, Table S2, read-out: MIC value): 1 µg/mL
- MIC (PA-021, blaIMP; read-out: MIC of ATM, PA-021, ATM alone (5 at 0 mg/L)): 1 µg/mL
SMILES: C[C@H]1[C@H](NC(=O)/C(=N\OC(C)(C)C(=O)O)c2csc(N)n2)C(=O)N1S(=O)(=O)O [ATM, aztreonam]
- Susceptibility to ATM (PA-033, blaNDM; PA-033, ATM alone): S (S (sensitive, MIC ≤ 8 mg/L))
- Susceptibility category (PA-033, blaNDM; PA-033, Table S2): S
- Susceptibility to ATM (PA-036, blaNDM; ATM alone): I (I (intermediate, MIC = 16 mg/L))
- Susceptibility category (PA-036, blaNDM; Table S2): I
- Susceptibility to ATM (PA-003, blaVIM; PA-003, ATM alone): R (R (resistant, MIC ≥ 32 mg/L))
- Susceptibility category (PA-003, blaVIM; PA-003, Table S2): I
- Susceptibility to ATM (PA-040, blaNDM; PA-040, ATM alone): S (S (sensitive, MIC ≤ 8 mg/L))
- Susceptibility category (PA-040, blaNDM; PA-040, Table S2): S
- Susceptibility to ATM (PA-041, blaNDM; PA-041, ATM alone): S (S (sensitive, MIC ≤ 8 mg/L))
- Susceptibility category (PA-041, blaNDM; PA-041, Table S2): S
- Susceptibility to ATM (PA-031, blaNDM; PA-031, ATM alone): S (S (sensitive, MIC ≤ 8 mg/L))
- Susceptibility category (PA-031, blaNDM; PA-031, Table S2): S
- Susceptibility to ATM ([1]; ATM alone): I (I (intermediate, MIC = 16 mg/L))
- Susceptibility category ([1]; Table S2): I
- Susceptibility to ATM (PA-026, blaNDM; PA-026, ATM alone): S (S (sensitive, MIC ≤ 8 mg/L))
- Susceptibility category (PA-026, blaNDM; PA-026, Table S2): S
- Susceptibility to ATM (PA-032, blaIMP; PA-032, ATM alone): S (S (sensitive, MIC ≤ 8 mg/L))
- Susceptibility category (PA-032, blaIMP; PA-032, Table S2): S
- Susceptibility to ATM (PA-029, blaIMP; PA-029, ATM alone): R (R (resistant, MIC ≥ 32 mg/L))
- Susceptibility category (PA-029, blaIMP; PA-029, Table S2): R
- Susceptibility to ATM (PA-021, blaIMP; PA-021, ATM alone): S (S (sensitive, MIC ≤ 8 mg/L))
- Susceptibility category (PA-021, blaIMP; PA-021, Table S2): S
